Series [1] relates to growth hormone, insulin and glucogen secretion. Nature of the series: Potency relative to somatostatin (SRIF), based on inhibition of hormone secretion. Particulars: somatostatin (SRIF) potency assigned a value of 1, based upon inhibition of growth hormone. The method, then:
Following the same procedure as described above for Assay 1, additional compounds were tested for local; i.e., topical, anti-inflammatory activity. […] In Table III, the potency of each compound tested relative to that of somatostatin is also shown, the somatostatin (SRIF) potency being assigned a value of 1 and based upon its inhibition of growth hormone, insulin and glucogen secretion.

The test system of series [2] is cellular proliferation (granuloma). Briefly: Assay 1: pellet granuloma assay, compound applied locally to implanted pellets. It is filed as in vivo, rats (Charles River-CD). As to conditions: for Body Wt. Change / Net weight of Pellets: local on pellet, male rats, 7 days; for Net weight of Pellets: ± S.E. of mean, control 39 ± 2.7. The method, then:
The assay method employed to test the Formula I, II and III compounds as local anti-inflammatory agents is a modification of the method described by S. L. Steelman, et al. [Steroids, 1, 163 (1963)] as follows:
(§1) Male rats (Charles River-CD) of about 150-160 grams in weight were subcutaneously implanted in the abdominal area with two pellets each. Five animals were used per group. The pellets used were preweighed and all used in a given assay were ±1 mg from one another. The compounds were dissolved in absolute ethanol and the indicated dose applied to each pellet in 0.2 ml. The alcohol was removed in vacuo overnight. Just prior to implantation, each pellet was moistened with 0.2 ml of 0.9% saline containing 1 mg each of penicillin and streptomycin. After seven days, the pellets were dissected out together with adhering granulomatous tissue. After drying in a vacuum oven overnight at 60°-65° C., the pellets were weighed. The difference in weight between the original pellet weight and the implanted pellet weight was used as a measure of cellular proliferation (granuloma). The lower the net weight, the more anti-inflammatory activity.
The results obtained following the Assay Method described above are shown below in Table I wherein hydrocortisone was used as a positive control.

Series [3] shares this test system. Briefly: Assay 2: pellet granuloma assay, compounds administered subcutaneously as saline injections. Type of series: in vivo, rats (Charles River-CD). As to conditions: for Avg. Granuloma wt. / Avg. Adrenal wt. / Avg. Thymus wt. / Avg. body wt change: rats, 7 days, ± S.E. of mean; for Avg. Granuloma wt.: control 28 ± 3; for Avg. Adrenal wt.: control 44 ± 1; for Avg. Thymus wt.: control 552 ± 45; for Avg. body wt change: control +35 ± 2. The method, then: as §1
Following the procedure described above for Assay 1, additional tests were conducted except that the compounds were administered subcutaneously as saline injections. The tests were carried out on six animals per group and the results obtained are shown below in Table II.

[4] abbreviates: daily dose 200 mcg subcutaneous.

Residues, ends and D or L forms follow the SMILES beside them.

Regarding `CC(C)[C@@H]1NC(=O)[C@H](CCCCN)NC(=O)[C@@H](Cc2c[nH]c3ccccc23)NC(=O)[C@H](Cc2ccc(O)cc2)NC(=O)[C@H](C)N(C)C(=O)[C@H](Cc2c[nH]c3ccccc23)NC1=O` [9/I, Cyclo-(N-Me-Ala-Tyr-D-Trp-Lys-Val-Trp)] (HELM PEPTIDE1{K.V.W.[meA].Y.[dW]}$PEPTIDE1,PEPTIDE1,1:R1-6:R2$$$V2.0), in series [1], the “Potency Relative to Samatostatin (SRIF)” value is on record as 20-35.
For `C[C@@H]1NC(=O)[C@H](CO)NC(=O)[C@H](CCCCN)NC(=O)[C@@H](Cc2c[nH]c3ccccc23)NC(=O)[C@H](Cc2c[nH]cn2)NC(=O)[C@H](Cc2ccccc2)N(C)C1=O` [11/I, Cyclo-(Ser-Ala-N-Me-Phe-His-D-Trp-Lys)] (HELM PEPTIDE1{A.[meF].H.[dW].K.S}$PEPTIDE1,PEPTIDE1,1:R1-6:R2$$$V2.0), the “Potency Relative to Samatostatin (SRIF)” value in series [1] amounted to 200.
Regarding `CC(C)[C@@H]1NC(=O)[C@H](CCCCN)NC(=O)[C@@H](Cc2c[nH]c3ccccc23)NC(=O)[C@H](Cc2ccc(O)cc2)NC(=O)[C@H](C)N(C)C(=O)[C@H](Cc2ccccc2)NC1=O` [Compound 8 of Formula I, Cyclo-(N-Me-Ala-Tyr-D-Trp-Lys-Val-Phe)], in series [2] (10 mcg./pellet), the “Body Wt. Change” value is reported as “+43 gm” and the “Net weight of Pellets” value is 39 ± 2.9 mg. Also, in series [2] (100 mcg./pellet), the “Body Wt. Change” value is listed as “+40 gm” and the “Net weight of Pellets” value was 30 ± 2.4 mg. The “anti-inflammatory activity (in words)” value in series [2] (administered locally, i.e., topically) was “clearly exhibits anti-inflammatory activity”. Besides, the “local anti-inflammatory activity (in words)” value in series [2] (doses of 100-200 micrograms per pellet) is “significant activity”. Moreover, the “effect on adrenal weight (in words)” value in series [3] (administered subcutaneously) is given as “slight decrease in the adrenal weight”. In addition, in series [3] (administered subcutaneously at a total dose of 1.4 mg (0.2 mg×7)), the “anti-inflammatory activity (in words)” value is given as “no anti-inflammatory activity”. Besides, the “anti-inflammatory activity (in words)” value in series [3] (administered systematically, i.e., subcutaneously) is on record as “no anti-inflammatory activity”. In addition, in series [3] (daily dose 50 mcg subcutaneous), the “Avg. Granuloma wt.” value is listed as 27 ± 3 mg, the “Avg. Adrenal wt.” value is on record as 43 ± 2 mg, the “Avg. Thymus wt.” value came to 576 ± 14 mg and the “Avg. body wt change” value is “+38 ± 3 gm”. Moreover, in series [3] (setting [4]), the “Avg. Granuloma wt.” value is 29 ± 2 mg, the “Avg. Adrenal wt.” value came out at 36 ± 2 mg, the “Avg. Thymus wt.” value came to 571 ± 26 mg and the “Avg. body wt change” value is given as “+35 ± 2 gm”. In addition, the “Potency Relative to Samatostatin (SRIF)” value in series [1] was 50-100.
For the molecule `CC(C)[C@@H]1NC(=O)[C@H](CCCCN)NC(=O)[C@H](Cc2c[nH]c3ccccc23)NC(=O)[C@H](Cc2ccc(O)cc2)NC(=O)[C@H](C)N(C)C(=O)[C@H](Cc2ccccc2)NC1=O` [10/I, Cyclo-(N-Me-Ala-Tyr-L-Trp-Lys-Val-Phe)], the “Potency Relative to Samatostatin (SRIF)” value in series [1] is 50.
On to `C[C@]12CCC(=O)C=C1CC[C@@H]1[C@@H]2[C@@H](O)C[C@@]2(C)[C@H]1CC[C@]2(O)C(=O)CO` [Hydrocortisone, reference compound], for which, in series [2] (200 mcg./pellet), the “Body Wt. Change” value is “+44 gm” and the “Net weight of Pellets” value is recorded as 34 ± 2.5 mg. For the same molecule, in series [2] (1000 mcg./pellet), the “Body Wt. Change” value is given as “+41 gm” and the “Net weight of Pellets” value came to 29 ± 2.1 mg. Moreover, in series [3] (administered subcutaneously), the “activity of positive control (in words)” value is “typical activity”. In series [3] (daily dose 1.0 mg subcutaneous), the “Avg. Granuloma wt.” value is 22 ± 1 mg, the “Avg. Adrenal wt.” value was 36 ± 3 mg, the “Avg. Thymus wt.” value is 201 ± 20 mg and the “Avg. body wt change” value is “+22 ± 3 gm”. In addition, in series [3] (daily dose 4.0 mg subcutaneous), the “Avg. Granuloma wt.” value came to 19 ± 1 mg, the “Avg. Adrenal wt.” value is 23 ± 1 mg, the “Avg. Thymus wt.” value is reported as 41 ± 3 mg and the “Avg. body wt change” value is recorded as -17 ± 2 gm.
For `C[C@@H](O)[C@@H]1NC(=O)[C@H](CCCCN)NC(=O)[C@@H](Cc2c[nH]c3ccccc23)NC(=O)[C@H](Cc2ccccc2)NC(=O)[C@@H]2CCCN2C(=O)[C@H](Cc2ccccc2)NC1=O` [13/II, Cyclo-(Pro-Phe-D-Trp-Lys-Thr-Phe)] (HELM PEPTIDE1{P.F.[dW].K.T.F}$PEPTIDE1,PEPTIDE1,1:R1-6:R2$$$V2.0), the “Potency Relative to Samatostatin (SRIF)” value in series [1] is 6.

Source of the values: patent US4585755A, “Cyclic and bridged cyclic somatostatin analogs useful as local anti-inflammatory agents” (Merck & Co., Inc., priority 1985, dated 1986).
